The nature of data set [1]: Dissociation constant was measured in water. In kind it is physicochemical.
Data set [2] is described as follows: Tested for inhibition of DNA synthesis at a dose range of 1.9-2.4 ug/ml after 30 min; range of 8-10 uM. The data set is classed as functional.

By pKa is commonly meant the pH at which an ionisable group is half protonated. By IC50 is commonly meant the concentration needed to halve the response being measured. Lower therefore signals greater potency in that assay.

Take `CCCCCCCCCCCCNC(=O)[C@@H](N)CO`: the pKa in data set [1] (water, read-out: pKa) was 7.5.
`CCCCCCCCCCCCNC(=O)[C@@H](N)COC` yielded a pKa in data set [1] of 5.9. Moreover, the IC50 in data set [2] was 10 µM.
As for `CCCCCCCCCCCCn1ccnc1` [listing 1 of 2 here], the pKa in data set [1] (buffer) is on record as 7.5.
`CCCCCCCCCCCCn1ccnc1` [listing 2 of 2 here]: the pKa in data set [1] (water, read-out: pKa) was 6.3.
On to `CCCCCCCCCCCCNC(=O)[C@@H](N)CO.Cl`, for which, in data set [1] (buffer), the pKa stood at 5.8.
Take `Cn1ccnc1` [1-METHYLIMIDAZOLE]: the pKa in data set [1] (water, read-out: pKa) turned out to be 7.

The values above are taken from ChEMBL document CHEMBL1128881, “The in vitro effects of three lysosomotropic detergents against three human tumor cell lines” (Bioorg Med Chem Lett, 1995).
